Where “and” joins values, the source holds several entries; their conditions need not be identical. Equal entries are not always repeated. Each block holds one compound with its values, some of them ahead of it.
Columns and labels:
B16F10 melanoma tumors = test: In vivo biodistribution of 99mTc complexes in C57B16 mice bearing B16F10 melanoma tumors; settings: for mel/blood: melanoma/blood ratio; for mel/liver: melanoma/liver ratio; for mel/lung: melanoma/lung ratio; for mel/spleen: melanoma/spleen ratio
Method: To study the tumor uptake of ^99mTc complexes, ^99mTc-Z2-^99mTc-Z4, in vivo biodistribution experiment at 1, 3, 6 hours post intra-venous injection of the ^99mTc-complex were carried out in C57B16 mice bearing B16F10 melanoma tumors. The biodistribution data including melanoma/nontumor (M/NT) ratios for selected organs are summarized in Table 2 as percentage injected dose per gram (% ID/g) (Table 2). […] This is due to washout from no-tumor organs and increased retention in the tumor.

B16 melanoma nodules = test: In vivo biodistribution and tumor uptake of 99mTc complexes in C57B16 mice with B16 melanoma nodules; settings: for mel/blood: melanoma/blood ratio; for mel/liver: melanoma/liver ratio; for mel/lung: melanoma/lung ratio; for mel/spleen: melanoma/spleen ratio
Method: The biodistribution data including melanoma/nontumor (M/NT) ratios for selected organs, summarized in Table 1 as percentage injected dose per gram (% ID/g)
To study the tumor uptake of radiolabeled metal complexes, in vivo, biodistribution experiments at 1 h after their administration were carried out in C57B16 male mice with palpable B16 melanoma nodules.

Eyes (B16F10 melanoma tumors; 1 h postinjection): 6.72 ± 0.77 % ID/g | blood (B16F10 melanoma tumors; 1 h postinjection): 0.33 ± 0.03 % ID/g | brain (B16F10 melanoma tumors; 1 h postinjection): 0.16 ± 0.01 % ID/g | heart (B16F10 melanoma tumors; 1 h postinjection): 0.59 ± 0.07 % ID/g | kidney (B16F10 melanoma tumors; 1 h postinjection): 2.50 ± 0.32 % ID/g | liver (B16F10 melanoma tumors; 1 h postinjection): 20.32 ± 1.0 % ID/g | lung (B16F10 melanoma tumors; 1 h postinjection): 2.37 ± 0.17 % ID/g | melanoma (tumor uptake) (B16F10 melanoma tumors; 1 h postinjection): 3.43 ± 0.70 % ID/g | muscle (B16F10 melanoma tumors; 1 h postinjection): 0.63 ± 0.17 % ID/g | spleen (B16F10 melanoma tumors; 1 h postinjection): 1.37 ± 0.19 % ID/g | mel/blood (B16F10 melanoma tumors; 1 h postinjection): 10.50 ± 1.9 | mel/liver (B16F10 melanoma tumors; 1 h postinjection): 0.17 ± 0.03 | mel/lung (B16F10 melanoma tumors; 1 h postinjection): 1.45 ± 0.30 | mel/spleen (B16F10 melanoma tumors; 1 h postinjection): 2.49 ± 0.24 | Eyes (B16F10 melanoma tumors; 3 h postinjection): 7.19 ± 1.40 % ID/g | blood (B16F10 melanoma tumors; 3 h postinjection): 0.34 ± 0.09 % ID/g | brain (B16F10 melanoma tumors; 3 h postinjection): 0.18 ± 0.04 % ID/g | heart (B16F10 melanoma tumors; 3 h postinjection): 0.63 ± 0.07 % ID/g | kidney (B16F10 melanoma tumors; 3 h postinjection): 2.73 ± 0.76 % ID/g | liver (B16F10 melanoma tumors; 3 h postinjection): 16.67 ± 3.8 % ID/g | lung (B16F10 melanoma tumors; 3 h postinjection): 2.36 ± 0.54 % ID/g | melanoma (tumor uptake) (B16F10 melanoma tumors; 3 h postinjection): 3.59 ± 1.76 % ID/g | muscle (B16F10 melanoma tumors; 3 h postinjection): 0.70 ± 0.52 % ID/g | spleen (B16F10 melanoma tumors; 3 h postinjection): 1.22 ± 0.42 % ID/g | mel/blood (B16F10 melanoma tumors; 3 h postinjection): 9.22 ± 4.93 | mel/liver (B16F10 melanoma tumors; 3 h postinjection): 0.15 ± 0.09 | mel/lung (B16F10 melanoma tumors; 3 h postinjection): 1.30 ± 0.67 | mel/spleen (B16F10 melanoma tumors; 3 h postinjection): 2.57 ± 1.21 | Eyes (B16F10 melanoma tumors; 6 h postinjection): 7.01 ± 0.41 % ID/g | blood (B16F10 melanoma tumors; 6 h postinjection): 0.14 ± 0.03 % ID/g | brain (B16F10 melanoma tumors; 6 h postinjection): 0.02 ± 0.01 % ID/g | heart (B16F10 melanoma tumors; 6 h postinjection): 0.25 ± 0.06 % ID/g | kidney (B16F10 melanoma tumors; 6 h postinjection): 1.07 ± 0.17 % ID/g | liver (B16F10 melanoma tumors; 6 h postinjection): 12.9 ± 1.72 % ID/g | lung (B16F10 melanoma tumors; 6 h postinjection): 0.91 ± 0.24 % ID/g | melanoma (tumor uptake) (B16F10 melanoma tumors; 6 h postinjection): 3.52 ± 0.88 % ID/g | muscle (B16F10 melanoma tumors; 6 h postinjection): 0.09 ± 0.02 % ID/g | spleen (B16F10 melanoma tumors; 6 h postinjection): 0.58 ± 0.20 % ID/g | mel/blood (B16F10 melanoma tumors; 6 h postinjection): 24.95 ± 4.6 | mel/liver (B16F10 melanoma tumors; 6 h postinjection): 0.28 ± 0.08 | mel/lung (B16F10 melanoma tumors; 6 h postinjection): 3.99 ± 1.10 | mel/spleen (B16F10 melanoma tumors; 6 h postinjection): 6.44 ± 2.12
SMILES: O=C1C[S][99Tc-]23(=[O])[S]CC[N+]2(CCCN2CCCCC2)CC[N]13 (stereo not shown) [Tc-Z4]

blood (B16 melanoma nodules; 1 h postinjection): 1.00 ± 0.46 % ID/g | brain (B16 melanoma nodules; 1 h postinjection): 0.30 ± 0.10 % ID/g | heart (B16 melanoma nodules; 1 h postinjection): 0.82 ± 0.37 % ID/g | kidney (B16 melanoma nodules; 1 h postinjection): 5.53 ± 0.81 % ID/g | liver (B16 melanoma nodules; 1 h postinjection): 12.7 ± 1.54 % ID/g | lung (B16 melanoma nodules; 1 h postinjection): 1.40 ± 0.49 % ID/g | melanoma (tumor uptake) (B16 melanoma nodules; 1 h postinjection): 7.62 ± 0.62 % ID/g | muscle (B16 melanoma nodules; 1 h postinjection): 0.35 ± 0.21 % ID/g | spleen (B16 melanoma nodules; 1 h postinjection): 1.83 ± 0.55 % ID/g | mel/blood (B16 melanoma nodules; 1 h postinjection): 7.6 ± 0.54 | mel/liver (B16 melanoma nodules; 1 h postinjection): 0.6 ± 0.09 | mel/lung (B16 melanoma nodules; 1 h postinjection): 5.4 ± 0.60 | mel/spleen (B16 melanoma nodules; 1 h postinjection): 4.2 ± 0.58 | blood (B16 melanoma nodules; 6 h postinjection): 0.32 ± 0.19 % ID/g | brain (B16 melanoma nodules; 6 h postinjection): 0.05 ± 0.02 % ID/g | heart (B16 melanoma nodules; 6 h postinjection): 0.11 ± 0.02 % ID/g | kidney (B16 melanoma nodules; 6 h postinjection): 1.98 ± 0.21 % ID/g | liver (B16 melanoma nodules; 6 h postinjection): 4.08 ± 0.92 % ID/g | lung (B16 melanoma nodules; 6 h postinjection): 0.47 ± 0.21 % ID/g | melanoma (tumor uptake) (B16 melanoma nodules; 6 h postinjection): 3.45 ± 1.2 % ID/g | muscle (B16 melanoma nodules; 6 h postinjection): 0.08 ± 0.01 % ID/g | spleen (B16 melanoma nodules; 6 h postinjection): 0.34 ± 0.10 % ID/g | mel/blood (B16 melanoma nodules; 6 h postinjection): 10.8 ± 1.00 | mel/liver (B16 melanoma nodules; 6 h postinjection): 0.9 ± 0.35 | mel/lung (B16 melanoma nodules; 6 h postinjection): 7.3 ± 0.98 | mel/spleen (B16 melanoma nodules; 6 h postinjection): 10.1 ± 1.11
SMILES: CCN(CC)CC[N+]12CC[S][99Tc-]13(=[O])[S]CC[N]3C(=O)C2 (stereo not shown) [[TcOAADT]-C2—N(Et)2, [^99mTcOAADT]-(CH2)2—N(Et2), reference compound]
tumor uptake and retention (in words) (B16 melanoma nodules; over time): significant washout from the tumor over time

Eyes (B16 melanoma nodules; 1 h postinjection): 15.42 ± 2.07 % ID/g | blood (B16 melanoma nodules; 1 h postinjection): 1.05 ± 0.19 % ID/g | brain (B16 melanoma nodules; 1 h postinjection): 0.24 ± 0.04 % ID/g | heart (B16 melanoma nodules; 1 h postinjection): 1.34 ± 0.18 % ID/g | kidney (B16 melanoma nodules; 1 h postinjection): 5.33 ± 1.10 % ID/g | liver (B16 melanoma nodules; 1 h postinjection): 12.62 ± 1.80 % ID/g | lung (B16 melanoma nodules; 1 h postinjection): 6.75 ± 0.57 % ID/g | melanoma (tumor uptake) (B16 melanoma nodules; 1 h postinjection): 9.61 % ID/g and 9.61 ± 1.02 % ID/g | muscle (B16 melanoma nodules; 1 h postinjection): 0.94 ± 0.14 % ID/g | spleen (B16 melanoma nodules; 1 h postinjection): 3.00 ± 1.45 % ID/g | melanoma (tumor uptake) (B16 melanoma nodules; 1 h postinjection, listed as Iso-[^99mTcOAADT]-(CH2)2-NEt2)): 9.61 % ID/g | mel/blood (B16 melanoma nodules; 1 h postinjection): 14.71 and 14.71 ± 2.40 | mel/liver (B16 melanoma nodules; 1 h postinjection): 0.75 and 0.75 ± 0.11 | mel/lung (B16 melanoma nodules; 1 h postinjection): 1.43 and 1.43 ± 0.15 | mel/spleen (B16 melanoma nodules; 1 h postinjection): 3.65 and 3.65 ± 1.19 | in vivo tumor uptake (B16 melanoma nodules; 3 h after administration): 8.19 %ID/g | in vivo tumor uptake (B16 melanoma nodules; 6 h after administration): 7.37 %ID/g | Eyes (B16 melanoma nodules; 6 h postinjection): 11.09 ± 0.84 % ID/g | blood (B16 melanoma nodules; 6 h postinjection): 0.25 ± 0.02 % ID/g | brain (B16 melanoma nodules; 6 h postinjection): 0.05 ± 0.01 % ID/g | heart (B16 melanoma nodules; 6 h postinjection): 0.18 ± 0.02 % ID/g | kidney (B16 melanoma nodules; 6 h postinjection): 1.11 ± 0.13 % ID/g | liver (B16 melanoma nodules; 6 h postinjection): 3.69 ± 0.48 % ID/g | lung (B16 melanoma nodules; 6 h postinjection): 1.39 ± 0.41 % ID/g | melanoma (tumor uptake) (B16 melanoma nodules; 6 h postinjection): 7.05 % ID/g and 7.05 ± 1.23 % ID/g | muscle (B16 melanoma nodules; 6 h postinjection): 0.07 ± 0.01 % ID/g | spleen (B16 melanoma nodules; 6 h postinjection): 0.78 ± 0.85 % ID/g | mel/blood (B16 melanoma nodules; 6 h postinjection): 47.25 and 47.25 ± 7.32 | mel/liver (B16 melanoma nodules; 6 h postinjection): 2.00 and 2.00 ± 0.23 | mel/lung (B16 melanoma nodules; 6 h postinjection): 5.87 and 5.87 ± 1.79 | mel/spleen (B16 melanoma nodules; 6 h postinjection): 13.99 and 13.99 ± 5.17
SMILES: CCN(CC)CC[N+]12CC[S][99Tc-]13(=[O])[S]CC(=O)[N]3CC2 (stereo not shown) [^99mTc-27, Iso-[^99mTcOAADT]-(CH2)2-NEt2)]

From US8747810B2, “Compositions and methods for imaging tissues, organs and tumors” (President and Fellows of Harvard College, priority 2009, dated 2014)
